Patent publication US11667649B2, “Heteroaromatic macrocyclic ether chemotherapeutic agents” (Nuvalent, Inc., priority 2020, dated 2023)

How the values were obtained:
[1] = molecular target: T1, ROS1-wt kinase domain (Homo sapiens, UniProt P08922); assay: Biochemical kinase assay, ROS1-wt; conditions: 2 mM ATP substrate solution, read-out: Ki^app ROS1-wt
T1 construct: TRKA-wt (1 nM, BPS Bio, 40280) kinase domains in buffer; purchased Carna 08-163
Outline: (§1)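 Compound in DMSO added first, then substrate solution (ATP 2 mM; AQT0101 or AQT0104, 26 μM; pH 7.5 HEPES, 10 mM MgCl2), then kinase solution with enzyme at 0.5–3 nM depending on construct. Kinetic read every 2 min for 120 min at 30° C; Ki^app by Morrison regression.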

[2] = molecular target: T2, ALK L1196M/G1202R kinase domain (Homo sapiens, UniProt Q9UM73, G1202R/L1196M); assay: Biochemical kinase assay, ALK L1196M/G1202R; conditions: 2 mM ATP substrate solution, read-out: Ki^app ALK-L1196M-G1202R
T2 construct: TRKA-wt (1 nM, BPS Bio, 40280) kinase domains in buffer; purchased SignalChem A19-12NG
Outline: as §1

[3] = molecular target: T3, ROS1-G2032R kinase domain (Homo sapiens, UniProt P08922, G2032R); assay: Biochemical kinase assay, ROS1-G2032R; conditions: 2 mM ATP substrate solution, read-out: Ki^app ROS1-G2032R
T3 construct: TRKA-wt (1 nM, BPS Bio, 40280) kinase domains in buffer; purchased SignalChem R14-12BG
Outline: as §1

[4] = molecular target: T4, TRKA-wt kinase domain (Homo sapiens, UniProt P04629); assay: Biochemical kinase assay, TRKA-wt; conditions: 2 mM ATP substrate solution, read-out: Ki^app TRKA-wt
T4 construct: TRKA-wt (1 nM, BPS Bio, 40280) kinase domains in buffer; purchased BPS Bio 40280
Outline: as §1

[5] = molecular target: T5, ALK-wt kinase domain (Homo sapiens, UniProt Q9UM73); assay: Biochemical kinase assay, ALK-wt; conditions: 2 mM ATP substrate solution, read-out: Ki^app ALK-wt
T5 construct: TRKA-wt (1 nM, BPS Bio, 40280) kinase domains in buffer; purchased Carna 08-518
Outline: as §1

| SMILES | Ki [1] | Ki [2] | Ki [3] | Ki [4] | Ki [5] |
| --- | --- | --- | --- | --- | --- |
| CCn1nnc2c1-c1cnc(N)c(c1)O[C@H](C)c1cc(F)ccc1-c1ncc(F)cc1C2 [Compound 70] | < 50 nM | < 50 nM | < 50 nM | 50 to 500 nM | < 50 nM |
| CCc1nn(C)c2c1-c1cnc(N)c(c1)OCc1cc(F)ccc1-c1nc(C)sc1C2 [Compound 175] | < 50 nM | < 50 nM | < 50 nM | 50 to 500 nM | < 50 nM |
| C[C@H]1Oc2cc(cnc2N)-c2c(C#N)ncn2Cc2cccnc2-c2ccc(F)cc21 [Compound 12] | < 50 nM | < 50 nM | < 50 nM | > 500 nM | < 50 nM |
| CCn1ncc2c1-c1cnc(N)c(c1)O[C@H](C)c1cc(F)ccc1-c1nccc(OC)c1C2 [Compound 151] | < 50 nM | < 50 nM | < 50 nM | < 50 nM | < 50 nM |
| CCn1ncc2c1-c1cnc(N)c(n1)OC(C)c1cc(F)ccc1-c1c(cnn1C)C2 (stereo not drawn) [Compound 164] | < 50 nM | 50 to 500 nM | < 50 nM | > 500 nM | < 50 nM |
| Nc1ncc2cc1OCc1cc(F)ccc1-n1nc(C(F)F)cc1Cc1cnn(CC3CC3)c1-2 [Compound 138] | < 50 nM | < 50 nM | < 50 nM | > 500 nM | < 50 nM |
| CCc1onc2c1-c1cnc(N)c(c1)O[C@H](C)c1cc(F)ccc1-c1nn(C)cc1C2 [Compound 152] | < 50 nM | < 50 nM | < 50 nM | < 50 nM | < 50 nM |
| C[C@H]1Oc2cc(cnc2N)-c2c(cnn2CC2CC2)Cc2cc(C(F)(F)F)nn2-c2ccc(F)cc21 [Compound 91] | < 50 nM | < 50 nM | < 50 nM | 50 to 500 nM | < 50 nM |
| C[C@H]1Oc2cc(cnc2N)-c2c(C#N)nn(C)c2Cc2ccccc2-c2ccc(F)cc21 [Compound 117] | < 50 nM | < 50 nM | 50 to 500 nM | > 500 nM | < 50 nM |
| C[C@H]1Oc2cc(cnc2N)-c2c(C#N)ncn2Cc2ccncc2-c2ccc(F)cc21 [Compound 11] | < 50 nM | 50 to 500 nM | < 50 nM | > 500 nM | < 50 nM |
| CCn1ncc2c1-c1cnc(N)c(c1)O[C@H](C)c1cc(F)ccc1-c1ncccc1C2 [Compound 3] | < 50 nM | < 50 nM | < 50 nM | < 50 nM | < 50 nM |
| Cc1nc2c(s1)Cc1c(C)nn(CC3CC3)c1-c1cnc(N)c(c1)O[C@H](C)c1cc(F)ccc1-2 [Compound 134] | < 50 nM | < 50 nM | < 50 nM | 50 to 500 nM | < 50 nM |
| CCn1nc2c(c1C#N)-c1cnc(N)c(c1)O[C@H](C)c1cc(F)ccc1-n1nccc1C2 [Compound 119] | < 50 nM | < 50 nM | 50 to 500 nM | < 50 nM | < 50 nM |
| CCn1ncc2c1-c1cnc(N)c(n1)OC(C)c1cc(F)ccc1-c1nccn1C2 (stereo not drawn) [Compound 163] | < 50 nM | < 50 nM | < 50 nM | 50 to 500 nM | < 50 nM |
| CCc1noc2c1-c1cnc(N)c(c1)OCc1cc(F)ccc1-c1nn(C)cc1C2 [Compound 30] | < 50 nM | < 50 nM | 50 to 500 nM | > 500 nM | < 50 nM |
| CCn1nc(Br)c2c1-c1cnc(N)c(c1)O[C@H](C)c1cc(F)ccc1-c1nn(C)cc1C2 [Compound 148] | < 50 nM | < 50 nM | 50 to 500 nM | > 500 nM | < 50 nM |
| Cc1nn(CC2CC2)c2c1Cc1cn(C)nc1-c1ccc(F)cc1[C@@H](C)Oc1cc-2cnc1N [Compound 53] | < 50 nM | < 50 nM | < 50 nM | 50 to 500 nM | < 50 nM |
| C[C@H]1Oc2cc(cnc2N)-c2c(C#N)nn(C)c2Cc2cc(Cl)nn2-c2ccc(F)cc21 [Compound 103] | < 50 nM | < 50 nM | < 50 nM | 50 to 500 nM | < 50 nM |
